These results are taken from ChEMBL document CHEMBL3045618, “Effect of seven new orchard pesticides on Galendromus occidentalis in laboratory studies” (2009).

For test [1], the system named is Galendromus occidentalis. Briefly: Toxicity against Metaseiulus occidentalis adults in bean leaf disk infested with two-spotted spider mites assessed as corrected mortality at 0.1600/16 g AI/L treated using worst-case laboratory exposure procedure measured after 72 hr. It counts as functional.
The test system of test [2] is Galendromus occidentalis. Description: Toxicity against Metaseiulus occidentalis adults in bean leaf disk infested with two-spotted spider mites assessed as corrected mortality at 0.1600/2 g AI/L treated using worst-case laboratory exposure procedure measured after 72 hr. It counts as functional.
Test [3] deals with Galendromus occidentalis. Briefly: Toxicity against Metaseiulus occidentalis adults in bean leaf disk infested with two-spotted spider mites assessed as average number of eggs laid (fecundity) at 0.1600 g AI/L treated using worst-case laboratory exposure procedure measured after 48 hr (reference value: 2.30/day). It counts as functional.
In test [4] the test system is Galendromus occidentalis. Briefly: Toxicity against Metaseiulus occidentalis adults in bean leaf disk infested with two-spotted spider mites assessed as repellency at 0.1600 g AI/L treated using worst-case laboratory exposure procedure measured after 72 hr (reference value: 16.1%). It counts as functional.
The test system of test [5] is Galendromus occidentalis. Description: Toxicity against Metaseiulus occidentalis adults in bean leaf disk infested with two-spotted spider mites assessed as corrected mortality at 0.1600 g AI/L treated using worst-case laboratory exposure procedure measured after 72 hr. It counts as functional.
Test [6] has as its system Galendromus occidentalis. Briefly: Toxicity against Metaseiulus occidentalis adults in bean leaf disk infested with two-spotted spider mites assessed as corrected mortality at 0.1600/8 g AI/L treated using worst-case laboratory exposure procedure measured after 72 hr. It counts as functional.
For test [7], the system named is Galendromus occidentalis. Briefly: Toxicity against Metaseiulus occidentalis adults in bean leaf disk infested with two-spotted spider mites assessed as average number of eggs laid (fecundity) at 0.1600 g AI/L treated using worst-case laboratory exposure procedure measured after 24 hr (reference value: 2.11/day). It counts as functional.
Test [8] concerns Galendromus occidentalis. Description: Toxicity against Metaseiulus occidentalis adults in bean leaf disk infested with two-spotted spider mites assessed as average number of eggs laid (fecundity) at 0.1600 g AI/L treated using worst-case laboratory exposure procedure measured after 72 hr (reference value: 2.23/day). It counts as functional.
Test [9] concerns Galendromus occidentalis. Description: Toxicity against Metaseiulus occidentalis adults in bean leaf disk infested with two-spotted spider mites assessed as mortality treated using worst-case laboratory exposure procedure measured after 72 hr. It counts as functional.
For another test, the system named is Neoseiulus fallacis. Description: Toxicity against Neoseiulus fallacis in hop fields assessed as mortality. It counts as functional, Garman.
The test system of a further test is Amblyseius andersoni. Briefly: Toxicity against Amblyseius andersoni in hop fields assessed as mortality. It counts as functional.
Test [10] deals with Galendromus occidentalis. Description: Toxicity against Metaseiulus occidentalis adults in bean leaf disk infested with two-spotted spider mites assessed as repellency at 0.1600 g AI/L treated using worst-case laboratory exposure procedure measured after 24 hr (reference value: 3.6%). It counts as functional.
In test [11] the test system is Galendromus occidentalis. Description: Toxicity against Metaseiulus occidentalis in hop fields assessed as mortality. It counts as functional.
Test [12] deals with Galendromus occidentalis. Description: Toxicity against Metaseiulus occidentalis adults in bean leaf disk infested with two-spotted spider mites assessed as repellency at 0.1600 g AI/L treated using worst-case laboratory exposure procedure measured after 48 hr (reference value: 13.6%). It counts as functional.
For test [13], the system named is Galendromus occidentalis. Description: Ovicidal activity against Metaseiulus occidentalis eggs in bean leaf disk infested with two-spotted spider mites assessed as corrected cumulative mortality at 240 g/L SC formulation treated using worst-case laboratory exposure procedure measured after 144 hr (reference value: 0.7%). It counts as functional.
The test system of test [14] is Galendromus occidentalis. Description: Toxicity against Metaseiulus occidentalis adults in bean leaf disk infested with two-spotted spider mites assessed as corrected mortality at 0.1600/32 g AI/L treated using worst-case laboratory exposure procedure measured after 72 hr. It counts as functional.
The subject of test [15] is Galendromus occidentalis. Briefly: Toxicity against Metaseiulus occidentalis adults in bean leaf disk infested with two-spotted spider mites assessed as repellency at 0.3767 g AI/L treated using worst-case laboratory exposure procedure measured after 72 hr (reference value: 16.1%). It counts as functional.
Test [16] relates to Galendromus occidentalis. Description: Toxicity against Metaseiulus occidentalis adults in bean leaf disk infested with two-spotted spider mites assessed as corrected mortality at 0.3767 g AI/L treated using worst-case laboratory exposure procedure measured after 72 hr. It counts as functional.
Test [17] has as its system Galendromus occidentalis. Briefly: Toxicity against Metaseiulus occidentalis adults in bean leaf disk infested with two-spotted spider mites assessed as repellency at 0.3767 g AI/L treated using worst-case laboratory exposure procedure measured after 48 hr (reference value: 13.6%). It counts as functional.
Test [18] relates to Galendromus occidentalis. Briefly: Toxicity against Metaseiulus occidentalis adults in bean leaf disk infested with two-spotted spider mites assessed as repellency at 0.3767 g AI/L treated using worst-case laboratory exposure procedure measured after 24 hr (reference value: 3.6%). It counts as functional.
For test [19], the system named is Galendromus occidentalis. Description: Toxicity against Metaseiulus occidentalis adults in bean leaf disk infested with two-spotted spider mites assessed as average number of eggs laid (fecundity) at 0.3767 g AI/L treated using worst-case laboratory exposure procedure measured after 72 hr (reference value: 2.23/day). It counts as functional.
For test [20], the system named is Galendromus occidentalis. Description: Toxicity against Metaseiulus occidentalis adults in bean leaf disk infested with two-spotted spider mites assessed as average number of eggs laid (fecundity) at 0.3767 g AI/L treated using worst-case laboratory exposure procedure measured after 24 hr (reference value: 2.11/day). It counts as functional.
The test system of test [21] is Galendromus occidentalis. Briefly: Toxicity against Metaseiulus occidentalis adults in bean leaf disk infested with two-spotted spider mites assessed as average number of eggs laid (fecundity) at 0.3767 g AI/L treated using worst-case laboratory exposure procedure measured after 48 hr (reference value: 2.30/day). It counts as functional.
Test [22] relates to Galendromus occidentalis. Briefly: Toxicity against Metaseiulus occidentalis adults in bean leaf disk infested with two-spotted spider mites assessed as average number of eggs laid (fecundity) at 0.3024 g AI/L treated using worst-case laboratory exposure procedure measured after 48 hr (reference value: 2.30/day). It counts as functional.
Test [23] relates to Galendromus occidentalis. Briefly: Toxicity against Metaseiulus occidentalis adults in bean leaf disk infested with two-spotted spider mites assessed as repellency at 0.3024 g AI/L treated using worst-case laboratory exposure procedure measured after 24 hr (reference value: 3.6%). It counts as functional.
The subject of test [24] is Galendromus occidentalis. Briefly: Toxicity against Metaseiulus occidentalis adults in bean leaf disk infested with two-spotted spider mites assessed as average number of eggs laid (fecundity) at 0.3024 g AI/L treated using worst-case laboratory exposure procedure measured after 72 hr (reference value: 2.23/day). It counts as functional.
Test [25] concerns Galendromus occidentalis. Briefly: Toxicity against Metaseiulus occidentalis adults in bean leaf disk infested with two-spotted spider mites assessed as repellency at 0.3024 g AI/L treated using worst-case laboratory exposure procedure measured after 72 hr (reference value: 16.1%). It counts as functional.
Test [26] relates to Galendromus occidentalis. Briefly: Toxicity against Metaseiulus occidentalis adults in bean leaf disk infested with two-spotted spider mites assessed as corrected mortality at 0.3024 g AI/L treated using worst-case laboratory exposure procedure measured after 72 hr. It counts as functional.
Test [27] concerns Galendromus occidentalis. Briefly: Toxicity against Metaseiulus occidentalis adults in bean leaf disk infested with two-spotted spider mites assessed as average number of eggs laid (fecundity) at 0.3024 g AI/L treated using worst-case laboratory exposure procedure measured after 24 hr (reference value: 2.11/day). It counts as functional.
The test system of test [28] is Galendromus occidentalis. Description: Toxicity against Metaseiulus occidentalis adults in bean leaf disk infested with two-spotted spider mites assessed as repellency at 0.3024 g AI/L treated using worst-case laboratory exposure procedure measured after 48 hr (reference value: 13.6%). It counts as functional.
Test [29] concerns Galendromus occidentalis. Description: Toxicity against Metaseiulus occidentalis adults in bean leaf disk infested with two-spotted spider mites assessed as corrected mortality at 4x0.1600 g AI/L treated using worst-case laboratory exposure procedure measured after 72 hr. It counts as functional.
Test [30] deals with Galendromus occidentalis. Description: Toxicity against Metaseiulus occidentalis adults in bean leaf disk infested with two-spotted spider mites assessed as corrected mortality at 2x0.1600 g AI/L treated using worst-case laboratory exposure procedure measured after 72 hr. It counts as functional.
Test [31] concerns Galendromus occidentalis. Description: Toxicity against Metaseiulus occidentalis adults in bean leaf disk infested with two-spotted spider mites assessed as repellency at 0.1333 g AI/L treated using worst-case laboratory exposure procedure measured after 48 hr (reference value: 13.6%). It counts as functional.
In test [32] the test system is Galendromus occidentalis. Description: Ovicidal activity against Metaseiulus occidentalis eggs in bean leaf disk infested with two-spotted spider mites assessed as corrected cumulative mortality at 480 g/L SC formulation treated using worst-case laboratory exposure procedure measured after 144 hr (reference value: 0.7%). It counts as functional.
For test [33], the system named is Galendromus occidentalis. Description: Toxicity against Metaseiulus occidentalis adults in bean leaf disk infested with two-spotted spider mites assessed as average number of eggs laid (fecundity) at 0.1333 g AI/L treated using worst-case laboratory exposure procedure measured after 72 hr (reference value: 2.23/day). It counts as functional.
For test [34], the system named is Galendromus occidentalis. Description: Toxicity against Metaseiulus occidentalis adults in bean leaf disk infested with two-spotted spider mites assessed as average number of eggs laid (fecundity) at 0.1333 g AI/L treated using worst-case laboratory exposure procedure measured after 24 hr (reference value: 2.11/day). It counts as functional.
The subject of test [35] is Galendromus occidentalis. Briefly: Toxicity against Metaseiulus occidentalis adults in bean leaf disk infested with two-spotted spider mites assessed as average number of eggs laid (fecundity) at 0.1333 g AI/L treated using worst-case laboratory exposure procedure measured after 48 hr (reference value: 2.30/day). It counts as functional.
For test [36], the system named is Galendromus occidentalis. Briefly: Toxicity against Metaseiulus occidentalis adults in bean leaf disk infested with two-spotted spider mites assessed as repellency at 0.1333 g AI/L treated using worst-case laboratory exposure procedure measured after 72 hr (reference value: 16.1%). It counts as functional.
Test [37] concerns Galendromus occidentalis. Description: Toxicity against Metaseiulus occidentalis adults in bean leaf disk infested with two-spotted spider mites assessed as repellency at 0.1333 g AI/L treated using worst-case laboratory exposure procedure measured after 24 hr (reference value: 3.6%). It counts as functional.

The term mortality denotes the percentage killed. Consider `O=[N+]([O-])/N=C1\NCCN1Cc1ccc(Cl)nc1` [IMIDACLOPRID], for which the mortality amounted to 34.4% with Galendromus occidentalis [1]; 84.2% in the test on Galendromus occidentalis [2]; 97.4% in the test with Galendromus occidentalis [5]; 59.4% in the test with Galendromus occidentalis [6]; 100% in the test on Neoseiulus fallacis; 35.6% in the test with Amblyseius andersoni. Besides, the mortality with Galendromus occidentalis [11] was found to be 100%; with Galendromus occidentalis [14] it was 16.8%. Also, the Activity in the test on Galendromus occidentalis [3] stood at 1.54 day⁻¹; with Galendromus occidentalis [7], 2.05 day⁻¹; in the test on Galendromus occidentalis [8], 1.3 day⁻¹. The Repellency is listed as 53.8% in the test on Galendromus occidentalis [4], 16% in the test with Galendromus occidentalis [10] and 51.9% in the test on Galendromus occidentalis [12]. In the test with Galendromus occidentalis [9], the LC50 turned out to be 0.0156 gAi/L. The mortality at 240000 µg/mL (stock) in the test on Galendromus occidentalis [13] turned out to be 2.7%.

`COc1cccc(C(=O)NN(C(=O)c2cc(C)cc(C)c2)C(C)(C)C)c1C` [METHOXYFENOZIDE]: the Repellency with Galendromus occidentalis [15] is reported as 9%; in the test on Galendromus occidentalis [17], 5.8%; in the test with Galendromus occidentalis [18], 3.8%. Moreover, the mortality with Galendromus occidentalis [16] worked out at 1.3%. The Activity in the test with Galendromus occidentalis [19] was 2.38 day⁻¹; with Galendromus occidentalis [20], 1.93 day⁻¹; in the test on Galendromus occidentalis [21], 2.15 day⁻¹. The mortality at 240000 µg/mL (stock) in the test on Galendromus occidentalis [13] worked out at 3.1%.

In the case of `CCC(C)(C)C(=O)OC1=C(c2ccc(Cl)cc2Cl)C(=O)OC12CCCCC2` [SPIRODICLOFEN], the Activity in the test on Galendromus occidentalis [22] worked out at 1.83 day⁻¹; in the test with Galendromus occidentalis [24], 1.43 day⁻¹; with Galendromus occidentalis [27], 1.93 day⁻¹. Moreover, the results for the Repellency with Galendromus occidentalis [23], in the test with Galendromus occidentalis [25] and in the test with Galendromus occidentalis [28] were 6.4%, 15.4% and 13.5%, respectively. Further, in the test on Galendromus occidentalis [26], the mortality amounted to 2.1%. Further, the mortality at 240000 µg/mL (stock) in the test on Galendromus occidentalis [13] came out at 2.3%.

Consider `N#C/N=C1\SCCN1Cc1ccc(Cl)nc1` [THIACLOPRID], for which the mortality came out at 5.8% in the test with Galendromus occidentalis [29], 2.3% in the test with Galendromus occidentalis [30] and 2.8% with Galendromus occidentalis [5]. The values for the Repellency in the test with Galendromus occidentalis [31], with Galendromus occidentalis [36] and with Galendromus occidentalis [37] were 44.9%, 49.4% and 12.2%, respectively. Further, in the test on Galendromus occidentalis [32], the mortality at 480000 µg/mL (stock) came out at 1.9%. Besides, the Activity in the test on Galendromus occidentalis [33] came out at 1.58 day⁻¹; in the test on Galendromus occidentalis [34], 1.64 day⁻¹; in the test on Galendromus occidentalis [35], 1.26 day⁻¹.
